The text below walks through data of the NIST ThermoML archive (doi:10.1016/j.jct.2012.03.015).

Numbers after ± are expanded uncertainties.

A short description of this data set: activity coefficient (dimensionless); of the first substance listed, at infinite dilution; xn = mol fraction of the nth substance listed. The conditions noted are these: 101 kPa, Liquid, Chromatography, x1 = 0.

`CC(C)CC(C)(C)C` [2,2,4-trimethylpentane] + COCC[N+]1(C)CCCC1.O=S(=O)([N-]S(=O)(=O)C(F)(F)F)C(F)(F)F: the activity coefficient is, setting by setting: (318.15 K) 26.9 ± 1.8; (328.15 K) 25.1 ± 1.7; (338.15 K) 23.7 ± 1.6; (348.15 K) 22.3 ± 1.5; (358.15 K) 21.2 ± 1.4; (368.15 K) 20 ± 1.4.

On to `CCC(=O)OC` [methyl propanoate] + COCC[N+]1(C)CCCC1.O=S(=O)([N-]S(=O)(=O)C(F)(F)F)C(F)(F)F, for which the activity coefficient by setting is: (318.15 K) 0.92 ± 0.06; (328.15 K) 0.94 ± 0.06; (338.15 K) 0.96 ± 0.06; (348.15 K) 0.98 ± 0.06; (358.15 K) 0.99 ± 0.06; (368.15 K) 1.01 ± 0.06.

Consider `CCOCC` [diethyl ether] + COCC[N+]1(C)CCCC1.O=S(=O)([N-]S(=O)(=O)C(F)(F)F)C(F)(F)F, for which the activity coefficient by setting is: (318.15 K) 2.79 ± 0.19; (328.15 K) 2.79 ± 0.19; (338.15 K) 2.78 ± 0.19; (348.15 K) 2.78 ± 0.19; (358.15 K) 2.78 ± 0.19; (368.15 K) 2.78 ± 0.19.

On to `C=CCCCCCCCC` [1-decene] + COCC[N+]1(C)CCCC1.O=S(=O)([N-]S(=O)(=O)C(F)(F)F)C(F)(F)F, for which the activity coefficient is, setting by setting: (318.15 K) 41.7 ± 2.9; (328.15 K) 39 ± 2.7; (338.15 K) 36.4 ± 2.5; (348.15 K) 33.8 ± 2.3; (358.15 K) 31.7 ± 2.2; (368.15 K) 29.8 ± 2.

Turning to `C1=CCCCC1` [cyclohexene] + COCC[N+]1(C)CCCC1.O=S(=O)([N-]S(=O)(=O)C(F)(F)F)C(F)(F)F, the activity coefficient reads like this: (318.15 K) 6.04 ± 0.41; (328.15 K) 5.82 ± 0.4; (338.15 K) 5.63 ± 0.38; (348.15 K) 5.44 ± 0.37; (358.15 K) 5.27 ± 0.36; (368.15 K) 5.1 ± 0.35.

As to `C=Cc1ccccc1` [styrene] + COCC[N+]1(C)CCCC1.O=S(=O)([N-]S(=O)(=O)C(F)(F)F)C(F)(F)F, the activity coefficient was 1.29 ± 0.08 (318.15 K); 1.32 ± 0.09 (328.15 K); 1.33 ± 0.09 (338.15 K); 1.36 ± 0.09 (348.15 K); 1.37 ± 0.09 (358.15 K); 1.39 ± 0.09 (368.15 K).

Consider `CCCOCCC` [dipropyl ether] + COCC[N+]1(C)CCCC1.O=S(=O)([N-]S(=O)(=O)C(F)(F)F)C(F)(F)F, for which the activity coefficient turned out to be 7.22 ± 0.49 (318.15 K); 7.03 ± 0.48 (328.15 K); 6.82 ± 0.46 (338.15 K); 6.64 ± 0.45 (348.15 K); 6.47 ± 0.44 (358.15 K); 6.32 ± 0.43 (368.15 K).

In the case of `CCC(C)(C)OC` [2-methoxy-2-methylbutane] + COCC[N+]1(C)CCCC1.O=S(=O)([N-]S(=O)(=O)C(F)(F)F)C(F)(F)F, the activity coefficient by setting is: (318.15 K) 4.08 ± 0.28; (328.15 K) 4.06 ± 0.28; (338.15 K) 4.05 ± 0.28; (348.15 K) 4.03 ± 0.27; (358.15 K) 4.01 ± 0.27; (368.15 K) 4 ± 0.27.

In the case of `Cc1ccc(C)cc1` [1,4-dimethylbenzene] + COCC[N+]1(C)CCCC1.O=S(=O)([N-]S(=O)(=O)C(F)(F)F)C(F)(F)F, the activity coefficient (318.15 K) is 2.15 ± 0.15; the activity coefficient (328.15 K) is 2.17 ± 0.15; the activity coefficient (338.15 K) was found to be 2.18 ± 0.15; the activity coefficient (348.15 K) was found to be 2.2 ± 0.15; the activity coefficient (358.15 K) stood at 2.21 ± 0.15; the activity coefficient (368.15 K) amounted to 2.23 ± 0.15.

Consider `CC(C)=O` [acetone] + COCC[N+]1(C)CCCC1.O=S(=O)([N-]S(=O)(=O)C(F)(F)F)C(F)(F)F, for which the activity coefficient is, setting by setting: (318.15 K) 0.47 ± 0.04; (328.15 K) 0.48 ± 0.04; (338.15 K) 0.49 ± 0.04; (348.15 K) 0.5 ± 0.04; (358.15 K) 0.51 ± 0.04; (368.15 K) 0.52 ± 0.04.

Take `C=C(C)c1ccccc1` [(1-methylethenyl)benzene] + COCC[N+]1(C)CCCC1.O=S(=O)([N-]S(=O)(=O)C(F)(F)F)C(F)(F)F: the activity coefficient (318.15 K) came to 1.87 ± 0.13; the activity coefficient (328.15 K) turned out to be 1.93 ± 0.13; the activity coefficient (338.15 K) was determined as 1.98 ± 0.13; the activity coefficient (348.15 K) worked out at 2.03 ± 0.14; the activity coefficient (358.15 K) was determined as 2.08 ± 0.14; the activity coefficient (368.15 K) is 2.12 ± 0.14.

As to `CCOC(C)=O` [ethyl acetate] + COCC[N+]1(C)CCCC1.O=S(=O)([N-]S(=O)(=O)C(F)(F)F)C(F)(F)F, the activity coefficient was 0.95 ± 0.06 (318.15 K); 0.97 ± 0.06 (328.15 K); 0.98 ± 0.06 (338.15 K); 1 ± 0.06 (348.15 K); 1.02 ± 0.06 (358.15 K); 1.03 ± 0.06 (368.15 K).

For `C1CCCCCC1` [cycloheptane] + COCC[N+]1(C)CCCC1.O=S(=O)([N-]S(=O)(=O)C(F)(F)F)C(F)(F)F, the activity coefficient reads like this: (318.15 K) 15.3 ± 1; (328.15 K) 14.1 ± 1; (338.15 K) 13.1 ± 0.9; (348.15 K) 12.3 ± 0.8; (358.15 K) 11.5 ± 0.8; (368.15 K) 10.8 ± 0.7.

`CCC(C)(C)C` [2,2-dimethylbutane] + COCC[N+]1(C)CCCC1.O=S(=O)([N-]S(=O)(=O)C(F)(F)F)C(F)(F)F: the activity coefficient amounted to 15.1 ± 1 (318.15 K); 14.4 ± 1 (328.15 K); 13.7 ± 0.9 (338.15 K); 13.1 ± 0.9 (348.15 K); 12.6 ± 0.9 (358.15 K); 12 ± 0.8 (368.15 K).

In the case of `c1ccsc1` [thiophene] + COCC[N+]1(C)CCCC1.O=S(=O)([N-]S(=O)(=O)C(F)(F)F)C(F)(F)F, the activity coefficient by setting is: (318.15 K) 0.885 ± 0.056; (328.15 K) 0.897 ± 0.057; (338.15 K) 0.909 ± 0.058; (348.15 K) 0.918 ± 0.058; (358.15 K) 0.929 ± 0.059; (368.15 K) 0.938 ± 0.059.

With `c1ccncc1` [pyridine] + COCC[N+]1(C)CCCC1.O=S(=O)([N-]S(=O)(=O)C(F)(F)F)C(F)(F)F, the activity coefficient was 0.602 ± 0.042 (318.15 K); 0.61 ± 0.043 (328.15 K); 0.618 ± 0.043 (338.15 K); 0.625 ± 0.043 (348.15 K); 0.633 ± 0.044 (358.15 K); 0.639 ± 0.044 (368.15 K).

Regarding `CCO` [ethanol] + COCC[N+]1(C)CCCC1.O=S(=O)([N-]S(=O)(=O)C(F)(F)F)C(F)(F)F, the activity coefficient reads like this: (318.15 K) 1.77 ± 0.12; (328.15 K) 1.63 ± 0.11; (338.15 K) 1.48 ± 0.1; (348.15 K) 1.38 ± 0.09; (358.15 K) 1.28 ± 0.08; (368.15 K) 1.2 ± 0.08.

Take `C1CCCC1` [cyclopentane] + COCC[N+]1(C)CCCC1.O=S(=O)([N-]S(=O)(=O)C(F)(F)F)C(F)(F)F: the activity coefficient came to 7.52 ± 0.51 (318.15 K); 7.19 ± 0.49 (328.15 K); 6.85 ± 0.47 (338.15 K); 6.54 ± 0.45 (348.15 K); 6.26 ± 0.43 (358.15 K); 5.98 ± 0.41 (368.15 K).

As for `CCCCCCC` [heptane] + COCC[N+]1(C)CCCC1.O=S(=O)([N-]S(=O)(=O)C(F)(F)F)C(F)(F)F, the activity coefficient (318.15 K) was determined as 28 ± 1.9; the activity coefficient (328.15 K) turned out to be 25.9 ± 1.8; the activity coefficient (338.15 K) is 24.2 ± 1.7; the activity coefficient (348.15 K) was determined as 22.6 ± 1.5; the activity coefficient (358.15 K) came to 21.1 ± 1.4; the activity coefficient (368.15 K) amounted to 19.7 ± 1.3.

As for `CCCCO` [butan-1-ol] + COCC[N+]1(C)CCCC1.O=S(=O)([N-]S(=O)(=O)C(F)(F)F)C(F)(F)F, the activity coefficient reads like this: (318.15 K) 2.87 ± 0.2; (328.15 K) 2.6 ± 0.2; (338.15 K) 2.35 ± 0.16; (348.15 K) 2.16 ± 0.15; (358.15 K) 1.98 ± 0.13; (368.15 K) 1.84 ± 0.12.

Turning to `COC(C)=O` [methyl ethanoate] + COCC[N+]1(C)CCCC1.O=S(=O)([N-]S(=O)(=O)C(F)(F)F)C(F)(F)F, the activity coefficient is, setting by setting: (318.15 K) 0.71 ± 0.05; (328.15 K) 0.73 ± 0.05; (338.15 K) 0.74 ± 0.05; (348.15 K) 0.76 ± 0.05; (358.15 K) 0.77 ± 0.05; (368.15 K) 0.78 ± 0.05.

Consider `C#CCCCCCC` [1-octyne] + COCC[N+]1(C)CCCC1.O=S(=O)([N-]S(=O)(=O)C(F)(F)F)C(F)(F)F, for which the activity coefficient reads like this: (318.15 K) 6.85 ± 0.47; (328.15 K) 6.73 ± 0.46; (338.15 K) 6.58 ± 0.45; (348.15 K) 6.48 ± 0.44; (358.15 K) 6.37 ± 0.43; (368.15 K) 6.27 ± 0.43.

`C#CCCCC` [1-hexyne] + COCC[N+]1(C)CCCC1.O=S(=O)([N-]S(=O)(=O)C(F)(F)F)C(F)(F)F: the activity coefficient came out at 3.29 ± 0.22 (318.15 K); 3.29 ± 0.22 (328.15 K); 3.28 ± 0.22 (338.15 K); 3.28 ± 0.22 (348.15 K); 3.28 ± 0.22 (358.15 K); 3.27 ± 0.22 (368.15 K).

Consider `CC(C)(C)O` [2-methylpropan-2-ol] + COCC[N+]1(C)CCCC1.O=S(=O)([N-]S(=O)(=O)C(F)(F)F)C(F)(F)F, for which the activity coefficient came to 1.92 ± 0.13 (318.15 K); 1.79 ± 0.12 (328.15 K); 1.67 ± 0.11 (338.15 K); 1.56 ± 0.1 (348.15 K); 1.48 ± 0.1 (358.15 K); 1.4 ± 0.09 (368.15 K).

Take `CO` [methanol] + COCC[N+]1(C)CCCC1.O=S(=O)([N-]S(=O)(=O)C(F)(F)F)C(F)(F)F: the activity coefficient reads like this: (318.15 K) 1.37 ± 0.09; (328.15 K) 1.27 ± 0.08; (338.15 K) 1.18 ± 0.08; (348.15 K) 1.1 ± 0.07; (358.15 K) 1.03 ± 0.06; (368.15 K) 0.972 ± 0.061.
